In patent US10681909B2, “Herbicidal triazoles” (FMC Corporation, priority 2014, dated 2020):

Tests used:
ryegrass, Italian [1] = assay: Test A preemergence; assay type: in vivo, Lolium multiflorum; conditions: 0 to 100 scale (0 no effect, 100 complete control)
Outline: (§1)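 Ratings reflect visual injury after ~10 d in greenhouse, 0 = no effect, 100 = complete control. Postemergence treatment was applied to one- to two-leaf seedlings; preemergence treatment was a directed soil spray at planting.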

windgrass = assay: Test D preemergence; assay type: in vivo, Apera spica-venti; conditions: for Plant response rating (0 to 100), Windgrass: 16 g ai/ha, 0 is no effect, 100 is complete control; for Plant response rating: Windgrass: scale 0 to 100
Description: (§2) Seeds of plant species selected from bluegrass (annual bluegrass, Poa annua), blackgrass (Alopecurus myosuroides), canarygrass (Phalaris minor), chickweed (common chickweed, Stellaria media), galium (catchweed bedstraw, Galium aparine), bromegrass, down (downy bromegrass, Bromus tectorum), Russian thistle (Salsola kali), field poppy (Papaver rhoeas), field violet (Viola arvensis), foxtail, green (green foxtail, Setaria viridis), deadnettle (henbit deadnettle, Lamium amplexicaule), ryegrass, Ital. (Italian ryegrass, Lolium multiflorum), kochia (Kochia scoparia), lambsquarters (Chenopodium album), oilseed rape (Brassica napus), pigweed (Amaranthus retroflexus), chamomile (scentless chamomile, Matricaria inodora), speedwell (bird's-eye speedwell, Veronica persica), barley, spring (spring barley, Hordeum vulgare), wheat, spring (spring wheat, Triticum aestivum), buckwheat, wild (wild buckwheat, Polygonum convolvulus), wild mustard (Sinapis arvensis), oat, wild (wild oat, Avena fatua), radish, wild (wild radish, Raphanus raphanistrum), […]), barley, winter (winter barley, Hordeum vulgare), and wheat, winter (winter wheat, Triticum aestivum) were planted into a silt loam soil and treated preemergence with test chemicals formulated in a non-phytotoxic solvent mixture which included a surfactant. At the same time, these species were planted in pots containing Sunshine Redi-Earth® planting medium comprising spaghnum peat moss, vermiculite, starter nutrients and dolomitic limestone and treated with postemergence applications of the test chemicals formulated in the same manner. Plants ranged in height from 2 to 18 cm (1- to 4-leaf stage). Treated plants and controls were maintained in a controlled growth environment for 14 to 21 d after which time all species were compared to controls and visually evaluated. […] A dash (-) response means no test result.

ragweed = assay: Test A preemergence; assay type: in vivo, Ambrosia elatior; conditions: 0 to 100 scale (0 no effect, 100 complete control)
Outline: as §1

ryegrass, Italian [2] = assay: Test A postemergence; assay type: in vivo, Lolium multiflorum; conditions: 0 to 100 scale (0 no effect, 100 complete control), approx. 10 d
Outline: as §1

pigweed [3] = assay: Test D preemergence; assay type: in vivo, Amaranthus retroflexus; conditions: for Plant response rating (0 to 100), Pigweed: 16 g ai/ha, 0 is no effect, 100 is complete control; for Plant response rating: Pigweed: scale 0 to 100
Description: as §2

field poppy = assay: Test D postemergence; assay type: in vivo, Papaver rhoeas; conditions: scale 0 to 100
Description: as §2

oilseed rape = assay: Test D preemergence; assay type: in vivo, Brassica napus; conditions: for Plant response rating (0 to 100), Oilseed Rape: 16 g ai/ha, 0 is no effect, 100 is complete control; for Plant response rating: Oilseed Rape: scale 0 to 100
Description: as §2

wild mustard = assay: Test D preemergence; assay type: in vivo, Sinapis arvensis; conditions: for Plant response rating (0 to 100), Mustard, Wild: 16 g ai/ha, 0 is no effect, 100 is complete control; for Plant response rating: Mustard, Wild: scale 0 to 100
Description: as §2

foxtail, giant = assay: Test C preemergence; assay type: in vivo, Setaria faberii; conditions: for Plant response rating (scale of 0 to 100 where 0 is no effect and 100 is complete control): Foxtail, Giant, preemergence; for Foxtail, Giant plant response rating (0 to 100): Preemergence, visual rating after 13 to 15 d
Outline: (§3)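 Preemergence: seeds sown in loam soil–sand blend and treated with test chemicals formulated in a non-phytotoxic solvent mixture containing a surfactant. Postemergence: plants grown in peat moss/vermiculite-based medium and sprayed with the same formulation at 2 to 18 cm height (1- to 4-leaf stage).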

galium = assay: Test D postemergence; assay type: in vivo, Galium aparine; conditions: scale 0 to 100
Description: as §2

wheat (winter wheat) = assay: Test C preemergence; assay type: in vivo, Triticum aestivum; conditions: for Wheat plant response rating (0 to 100): Preemergence, visual rating after 13 to 15 d; for Plant response rating (scale of 0 to 100 where 0 is no effect and 100 is complete control): Wheat, preemergence, 250 g ai/ha
Outline: as §3

pigweed [4] = assay: Test D postemergence; assay type: in vivo, Amaranthus retroflexus; conditions: scale 0 to 100
Description: as §2

barley, spring = assay: Test D preemergence; assay type: in vivo, Hordeum vulgare; conditions: for Plant response rating (0 to 100), Barley, Spring: 16 g ai/ha, 0 is no effect, 100 is complete control; for Plant response rating: Barley, Spring: scale 0 to 100
Description: as §2

barley, winter = assay: Test D preemergence; assay type: in vivo, Hordeum vulgare; conditions: for Plant response rating (0 to 100), Barley, Winter: 16 g ai/ha, 0 is no effect, 100 is complete control; for Plant response rating: Barley, Winter: scale 0 to 100
Description: as §2

CCOc1nc(-c2ccc(C(F)(F)F)cc2)nn1Cc1ccnc(C(F)(F)F)c1 [Compound 35, 4-[[5-ethoxy-3-[4-(trifluoromethyl)phenyl]-1H-1,2,4-triazole-1-yl]methyl]-2-(trifluoromethyl)pyridine]
Plant response rating, Ryegrass, Italian (ryegrass, Italian [1]; 31 g ai/ha): 30 | Plant response rating, Ryegrass, Italian (ryegrass, Italian [1]; 125 g ai/ha): 60 | Plant response rating (0 to 100), Windgrass (windgrass): 70 | Plant response rating: Windgrass (windgrass; 62 g ai/ha): 85 | Plant response rating: Windgrass (windgrass; 125 g ai/ha): 100 | Plant response rating, Ragweed (ragweed; 31 g ai/ha): 20 | Plant response rating, Ragweed (ragweed; 125 g ai/ha): 50 | Plant response rating, Ryegrass, Italian (ryegrass, Italian [2]; 31 g ai/ha): 30 | Plant response rating, Ryegrass, Italian (ryegrass, Italian [2]; 125 g ai/ha): 60 | Plant response rating (0 to 100), Pigweed (pigweed [3]): 100 | Plant response rating: Pigweed (pigweed [3]; 62 g ai/ha): 100 | Plant response rating: Pigweed (pigweed [3]; 125 g ai/ha): 100 | Plant response rating: Field Poppy (field poppy; 16 g ai/ha): 80 | Plant response rating: Field Poppy (field poppy; 31 g ai/ha): 95 | Plant response rating: Field Poppy (field poppy; 62 g ai/ha): 95 | Plant response rating: Field Poppy (field poppy; 125 g ai/ha): 100 | Plant response rating (0 to 100), Oilseed Rape (oilseed rape): 25 | Plant response rating: Oilseed Rape (oilseed rape; 62 g ai/ha): 40 | Plant response rating: Oilseed Rape (oilseed rape; 125 g ai/ha): 100 | Plant response rating (0 to 100), Mustard, Wild (wild mustard): 70 | Plant response rating: Mustard, Wild (wild mustard; 62 g ai/ha): 100 | Plant response rating: Mustard, Wild (wild mustard; 125 g ai/ha): 100 | Plant response rating (scale of 0 to 100 where 0 is no effect and 100 is complete control) (foxtail, giant; 125 g ai/ha): 100 | Plant response rating (scale of 0 to 100 where 0 is no effect and 100 is complete control) (foxtail, giant; 250 g ai/ha): 100 | Foxtail, Giant plant response rating (0 to 100) (foxtail, giant; 31 g ai/ha): 98 | Foxtail, Giant plant response rating (0 to 100) (foxtail, giant; 62 g ai/ha): 100 | Plant response rating: Galium (galium; 16 g ai/ha): 70 | Plant response rating: Galium (galium; 31 g ai/ha): 75 | Plant response rating: Galium (galium; 62 g ai/ha): 80 | Plant response rating: Galium (galium; 125 g ai/ha): 80 | Wheat plant response rating (0 to 100) (wheat (winter wheat); 31 g ai/ha): 5 | Wheat plant response rating (0 to 100) (wheat (winter wheat); 62 g ai/ha): 5 | Plant response rating (scale of 0 to 100 where 0 is no effect and 100 is complete control) (wheat (winter wheat)): 35 | Plant response rating: Pigweed (pigweed [4]; 16 g ai/ha): 100 | Plant response rating: Pigweed (pigweed [4]; 31 g ai/ha): 100 | Plant response rating: Pigweed (pigweed [4]; 62 g ai/ha): 100 | Plant response rating: Pigweed (pigweed [4]; 125 g ai/ha): 100 | Plant response rating (0 to 100), Barley, Spring (barley, spring): 30 | Plant response rating: Barley, Spring (barley, spring; 31 g ai/ha): 40 | Plant response rating: Barley, Spring (barley, spring; 62 g ai/ha): 40 | Plant response rating: Barley, Spring (barley, spring; 125 g ai/ha): 50 | Plant response rating (0 to 100), Barley, Winter (barley, winter): 25 | Plant response rating: Barley, Winter (barley, winter; 31 g ai/ha): 40 | Plant response rating: Barley, Winter (barley, winter; 62 g ai/ha): 40 | Plant response rating: Barley, Winter (barley, winter; 125 g ai/ha): 50

CCOc1nc(-c2ccccc2)nn1Cc1ccnc(C(F)(F)F)c1 [Compound 27]
Plant response rating, Ryegrass, Italian (ryegrass, Italian [1]; 125 g ai/ha): 90 | Plant response rating, Ryegrass, Italian (ryegrass, Italian [1]; 500 g ai/ha, approx. 10 d): 100 | Plant response rating (0 to 100), Windgrass (windgrass): 5 | Plant response rating: Windgrass (windgrass; 62 g ai/ha): 80 | Plant response rating: Windgrass (windgrass; 125 g ai/ha): 95 | Plant response rating, Ragweed (ragweed; 125 g ai/ha): 90 | Plant response rating, Ragweed (ragweed; 500 g ai/ha, approx. 10 d): 100 | Plant response rating, Ryegrass, Italian (ryegrass, Italian [2]; 125 g ai/ha): 50 | Plant response rating, Ryegrass, Italian (ryegrass, Italian [2]; 500 g ai/ha): 90 | Plant response rating (0 to 100), Pigweed (pigweed [3]): 100 | Plant response rating: Pigweed (pigweed [3]; 62 g ai/ha): 100 | Plant response rating: Pigweed (pigweed [3]; 125 g ai/ha): 100 | Plant response rating: Field Poppy (field poppy; 16 g ai/ha): 75 | Plant response rating: Field Poppy (field poppy; 31 g ai/ha): 80 | Plant response rating: Field Poppy (field poppy; 62 g ai/ha): 85 | Plant response rating: Field Poppy (field poppy; 125 g ai/ha): 100 | Plant response rating (0 to 100), Oilseed Rape (oilseed rape): 5 | Plant response rating: Oilseed Rape (oilseed rape; 62 g ai/ha): 60 | Plant response rating: Oilseed Rape (oilseed rape; 125 g ai/ha): 80 | Plant response rating (0 to 100), Mustard, Wild (wild mustard): 80 | Plant response rating: Mustard, Wild (wild mustard; 62 g ai/ha): 100 | Plant response rating: Mustard, Wild (wild mustard; 125 g ai/ha): 100 | Plant response rating (scale of 0 to 100 where 0 is no effect and 100 is complete control) (foxtail, giant; 125 g ai/ha): 100 | Plant response rating (scale of 0 to 100 where 0 is no effect and 100 is complete control) (foxtail, giant; 250 g ai/ha): 100 | Foxtail, Giant plant response rating (0 to 100) (foxtail, giant; 31 g ai/ha): 100 | Foxtail, Giant plant response rating (0 to 100) (foxtail, giant; 62 g ai/ha): 100 | Plant response rating: Galium (galium; 16 g ai/ha): 70 | Plant response rating: Galium (galium; 31 g ai/ha): 75 | Plant response rating: Galium (galium; 62 g ai/ha): 100 | Plant response rating: Galium (galium; 125 g ai/ha): 100 | Wheat plant response rating (0 to 100) (wheat (winter wheat); 31 g ai/ha): 20 | Wheat plant response rating (0 to 100) (wheat (winter wheat); 62 g ai/ha): 25 | Plant response rating (scale of 0 to 100 where 0 is no effect and 100 is complete control) (wheat (winter wheat)): 60 | Plant response rating: Pigweed (pigweed [4]; 16 g ai/ha): 100 | Plant response rating: Pigweed (pigweed [4]; 31 g ai/ha): 100 | Plant response rating: Pigweed (pigweed [4]; 62 g ai/ha): 100 | Plant response rating: Pigweed (pigweed [4]; 125 g ai/ha): 100 | Plant response rating (0 to 100), Barley, Spring (barley, spring): 25 | Plant response rating: Barley, Spring (barley, spring; 31 g ai/ha): 25 | Plant response rating: Barley, Spring (barley, spring; 62 g ai/ha): 35 | Plant response rating: Barley, Spring (barley, spring; 125 g ai/ha): 35 | Plant response rating (0 to 100), Barley, Winter (barley, winter): 15 | Plant response rating: Barley, Winter (barley, winter; 31 g ai/ha): 25 | Plant response rating: Barley, Winter (barley, winter; 62 g ai/ha): 30 | Plant response rating: Barley, Winter (barley, winter; 125 g ai/ha): 35
